Test results taken from patent publication US20090197955A1, “METHODS OF IMPROVING DHA DEPOSITION AND RELATED FUNCTION AND/OR DEVELOPMENT” (Monsanto Company, priority 2008, published 2009).

Experiment: Fatty acid composition of pig tissues (ham, loin, belly, skin) after feeding SDA ethyl ester diets, 35 day study
Type: in vivo, pigs
Procedure: A 35 day study was conducted to determine whether pigs fed a diet containing SDA could enhance tissues with improved fatty acid profiles including increased levels of SDA, EPA, and DHA.
Four test diets (Treatment 2, 3, 4, and 5) with SDA ethyl ester substituted for corn oil to provide 0.2, 0.4, 0.6 and 0.8% (w/w SDA active ingredient, as-is basis) were fed ad libitum to one pen of four pigs throughout the 35-day test period Table 4). All diets were fed in meal form. Treatment 6 was fed the same diet as Treatment 5, but for a duration of only 21 days.
All pigs were individually weighed at initiation of the acclimation and test period, and immediately prior to slaughter. Feed consumption per pen was recorded. Upon completion of the feeding period, pigs were slaughtered for tissue collection and carcass evaluation. Pigs were slaughtered using standard industry practices (electrical stunning, exsanguinations, scalding, dehairing and evisceration). Live weights prior to slaughter and hot carcass weights were recorded. The left side of each carcass was fabricated and samples were obtained from the loin (longissimus muscle), ham (semimembranosus muscle) and belly (a section from the center of the belly) for sensory evaluation, fatty acid, and proximate analysis. Prior to removing the sample for sensory and fatty and proximate analysis from the belly the firmness of the belly was evaluated using a flop test. At 24 hr postmortem fat thickness (10th rib), loin eye area (10th rib), visual color, firmness and marbling, Minolta color (L*a*b*), pH, and drip loss were measured.
In order to evaluate the fatty acid composition of pig tissues (loin, ham, skin, and belly), samples were stored at −80° C. until evaluation. After thawing, ˜22 g of fresh pig tissue was chopped into small pieces and thoroughly mixed before 10 g was sub sampled and lyophilized. Lyophilized samples were ground in 30 ml Sarstedt tubes with two ball bearings using a Mega Grinder. Ground samples (loin and ham: 50 mg; skin: 100 mg; belly: 150 mg; diet: 500 mg) were directly methylated with sulfuric acid in methanol (loin and ham: 1 mL; skin: 3 mL; belly: 10 mL; diet: 1.5 mL) sealed in the presence of butylated hydroxytoluene (50 mg BHT in 100 ml reagent) in reflux conditions of 90° C. Resultant fatty acid methyl esters (FAME's) were separated by capillary gas chromatography (GC) and detected by flame ionization detector (FID). The column used was a Supelco Omegawax 250 capillary column with dimensions of 30 m×0.25 mm×0.25 μm film thickness. The run time was 32 minutes. Peaks were identified based on their relative retention time compared to a FAME reference mixture. Quantification was achieved by using an internal standard (c15:0 triacylglyceride (TAG) for pig tissue samples and c17:0 TAG for diet samples). Results are reported as FA g/100 g fat with theoretical response correction.
For Table 6 below, each value represents g/100 g total fatty acids a mean of 4 samples (1 sample from each of 4 pigs) per treatment.

## CC/C=C\C/C=C\C/C=C\C/C=C\CCCCC(=O)O [SDA, stearidonic acid]
0.8% SDA feed, 35 days
  22:3 n-6, ham: 0.24 g FA per 100 g fat
  22:5 n-3 (DPA), ham: 0.83 g FA per 100 g fat
  22:6 n-3 (DHA), ham: 0.13 g FA per 100 g fat
  24:1 n-9, ham: 0.07 g FA per 100 g fat
  Total PUFA, ham: 18.89 g FA per 100 g fat
  Total monoenes, ham: 43.54 g FA per 100 g fat
  Total n-3, ham: 2.64 g FA per 100 g fat
  Total n-6, ham: 16.25 g FA per 100 g fat
  Total saturates, ham: 33.18 g FA per 100 g fat
  n-6/n-3, ham: 6.16
SDA 0.2%, 35 Day
  12:0, ham: 2.04 mg FA/100 g of fresh tissue
  14:0, ham: 34.0 mg FA/100 g of fresh tissue
  16:0, ham: 673.5 mg FA/100 g of fresh tissue
  16:1 n-7, ham: 116.6 mg FA/100 g of fresh tissue
  18:0, ham: 313.7 mg FA/100 g of fresh tissue
  18:1 n-7, ham: 146.2 mg FA/100 g of fresh tissue
  18:1 n-9, ham: 1303.4 mg FA/100 g of fresh tissue
  18:2 n-6, ham: 264.7 mg FA/100 g of fresh tissue
  18:3 n-3, ham: 5.60 mg FA/100 g of fresh tissue
  18:4 n-3, ham: 0.76ab mg FA/100 g of fresh tissue
  20:1 n-9, ham: 22.0 mg FA/100 g of fresh tissue
  20:2 n-6, ham: 11.4a mg FA/100 g of fresh tissue
  20:3 n-3, ham: 0.91 mg FA/100 g of fresh tissue
  20:4 n-3, ham: 2.23ab mg FA/100 g of fresh tissue
  20:4 n-6, ham: 57.4 mg FA/100 g of fresh tissue
  20:5 n-3, ham: 3.98a mg FA/100 g of fresh tissue
  22:1 n-11, ham: 1.06ab mg FA/100 g of fresh tissue
  22:5 n-3, ham: 11.1b mg FA/100 g of fresh tissue
  22:6 n-3, ham: 2.21 mg FA/100 g of fresh tissue
  Lipid content, ham: 3.15%
  Total PUFA, ham: 377.9 mg FA/100 g of fresh tissue
  Total monoenes, ham: 1600 mg FA/100 g of fresh tissue
  Total n-3, ham: 26.8a mg FA/100 g of fresh tissue
  Total n-6, ham: 351.2 mg FA/100 g of fresh tissue
  Total saturates, ham: 1029.0 mg FA/100 g of fresh tissue
  n-3/n-6, ham: 0.080b
SDA 0.4%, 35 Day
  12:0, ham: 2.22 mg FA/100 g of fresh tissue
  14:0, ham: 38.2 mg FA/100 g of fresh tissue
  16:0, ham: 748.4 mg FA/100 g of fresh tissue
  16:1 n-7, ham: 121.6 mg FA/100 g of fresh tissue
  18:0, ham: 370.6 mg FA/100 g of fresh tissue
  18:1 n-7, ham: 151.0 mg FA/100 g of fresh tissue
  18:1 n-9, ham: 1404.9 mg FA/100 g of fresh tissue
  18:2 n-6, ham: 316.6 mg FA/100 g of fresh tissue
  18:3 n-3, ham: 9.17 mg FA/100 g of fresh tissue
  18:4 n-3, ham: 1.45b mg FA/100 g of fresh tissue
  20:1 n-9, ham: 23.6 mg FA/100 g of fresh tissue
  20:2 n-6, ham: 12.7a mg FA/100 g of fresh tissue
  20:3 n-3, ham: 1.49 mg FA/100 g of fresh tissue
  20:4 n-3, ham: 5.04bc mg FA/100 g of fresh tissue
  20:4 n-6, ham: 64.3 mg FA/100 g of fresh tissue
  20:5 n-3, ham: 7.91b mg FA/100 g of fresh tissue
  22:1 n-11, ham: 1.25b mg FA/100 g of fresh tissue
  22:5 n-3, ham: 15.2c mg FA/100 g of fresh tissue
  22:6 n-3, ham: 2.59 mg FA/100 g of fresh tissue
  Lipid content, ham: 3.5%
  Total PUFA, ham: 459.2 mg FA/100 g of fresh tissue
  Total monoenes, ham: 1715 mg FA/100 g of fresh tissue
  Total n-3, ham: 42.9b mg FA/100 g of fresh tissue
  Total n-6, ham: 416.4 mg FA/100 g of fresh tissue
  Total saturates, ham: 1166.5 mg FA/100 g of fresh tissue
  n-3/n-6, ham: 0.101bc
SDA 0.6%, 35 Day
  12:0, ham: 1.37 mg FA/100 g of fresh tissue
  14:0, ham: 23.9 mg FA/100 g of fresh tissue
  16:0, ham: 482.6 mg FA/100 g of fresh tissue
  16:1 n-7, ham: 69.5 mg FA/100 g of fresh tissue
  18:0, ham: 252.5 mg FA/100 g of fresh tissue
  18:1 n-7, ham: 92.6 mg FA/100 g of fresh tissue
  18:1 n-9, ham: 854.9 mg FA/100 g of fresh tissue
  18:2 n-6, ham: 215.7 mg FA/100 g of fresh tissue
  18:3 n-3, ham: 5.03 mg FA/100 g of fresh tissue
